Experimental data published in patent EP0934933A1, “Phthalazinones” (Byk Gulden Lomberg Chemische Fabrik GmbH, priority 1998, dated 1999).

tested on: PDE4; test: Inhibition of PDE 4 activity (method of Bauer and Schwabe, adapted to microtitre plates); format: biochemical; conditions: measured as -logIC50 (mol/l)

Compound	-logIC50
CCOc1ccc(-c2nn(CC(=O)c3ccccc3)c(=O)c3ccccc23)cc1OCC [Compound 2, 2-(2-Phenyl-2-oxoethyl)-4-(3,4-diethoxyphenyl)-2H-phthalazin-1-one]	7.01
CCOc1cc(-c2nn(CC(=O)c3ccccc3)c(=O)c3ccccc23)ccc1OC [Compound 3, 4-(3-Ethoxy-4-methoxyphenyl)-2-(2-phenyl-2-oxoethyl)-2H-phthalazin-1-one]	7.28
COc1ccc(-c2nn(CC(=O)c3ccccc3)c(=O)c3ccccc23)cc1OC1CCCC1 [Compound 4, 4-(3-Cyclopentyloxy-4-methoxyphenyl)-2-(2-phenyl-2-oxoethyl)-2H-phthalazin-1-one]	7.09
COc1ccc(-c2nn(CC(=O)c3ccccc3)c(=O)c3ccccc23)cc1OC(F)F [Compound 5, 4-(3-Difluoromethoxy-4-methoxyphenyl)-2-(2-phenyl-2-oxoethyl)-2H-phthalazin-1-one]	7.14
COc1ccc(-c2nn(CC(=O)c3ccccc3OC)c(=O)c3ccccc23)cc1OC [Compound 7, 4-(3,4-Dimethoxyphenyl)-2-[2-(2-methoxyphenyl)-2-oxoethyl]-2H-phthalazin-1-one]	7.52
COc1ccc(OC)c(C(=O)Cn2nc(-c3ccc(OC)c(OC)c3)c3ccccc3c2=O)c1 [Compound 10, 4-(3,4-Dimethoxyphenyl)-2-[2-(2,5-dimethoxyphenyl)-2-oxoethyl]-2H-phthalazin-1-one]	6.99
COc1ccc(-c2nn(CC(=O)c3cc(Cl)c(N)c(Cl)c3)c(=O)c3ccccc23)cc1OC [Compound 12, 4-(3,4-Dimethoxyphenyl)-2-[2-(4-amino-3,5-dichlorophenyl)-2-oxoethyl]-2H-phthalazin-1-one]	6.85
